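Five concentrations, 48 hours, 96-well plates. GI50 marks 50% less growth.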 Calls of active or inactive are those of the source. Rule as the data show it: active = GI50 up to about 1.1 µM and inactive = higher.
Assays:
Test in all cases: inhibition of tumour cell growth, NCI panel, 48 h
[1] = system: NCI-H460
[2] = system: HCC 2998
[3] = system: HCT-116
[4] = system: U-251
[5] = system: SF-268
[6] = system: K562
[7] = system: SN12C
[8] = system: KM12
[9] = system: OVCAR-3
[10] = system: HCT-15
[11] = system: MDA-N
[12] = system: SR
[13] = system: UO-31
[14] = system: RPMI-8226
[15] = system: IGROV-1
[16] = system: SF-295
[17] = system: NCI/ADR-RES
[18] = system: NCI-H522
[19] = system: SNB-19

| Structure (SMILES) | GI50 [1] | GI50 [2] | GI50 [3] | GI50 [4] | GI50 [5] | GI50 [6] | GI50 [7] | GI50 [8] | GI50 [9] | GI50 [10] [µM] | GI50 [11] | GI50 [12] | GI50 [13] | GI50 [14] | GI50 [15] | GI50 [16] | GI50 [17] | GI50 [18] | GI50 [19] |
| --- | --- | --- | --- | --- | --- | --- | --- | --- | --- | --- | --- | --- | --- | --- | --- | --- | --- | --- | --- |
| Cc1cc(S(=O)(=O)Nc2n[nH]c(-c3ccc(Cl)cc3)n2)c(SSc2cc(Cl)c(C)cc2S(=O)(=O)Nc2n[nH]c(-c3ccc(Cl)cc3)n2)cc1Cl | 22.4 µM (inactive) | 19.6 µM (inactive) | 28.5 µM (inactive) | 25.2 µM (inactive) | 34.1 µM (inactive) | 27 µM (inactive) | 43.6 µM (inactive) | 29.2 µM (inactive) | 28.3 µM (inactive) | 25.1 | 41.3 µM (inactive) | 25.5 µM (inactive) | 29.4 µM (inactive) | 37.2 µM (inactive) | 22 µM (inactive) | 31.7 µM (inactive) | 47.1 µM (inactive) | 32.2 µM (inactive) |  |
| C=CCO/N=C/c1cc(/N=C(/S)c2ccoc2C)ccc1Cl |  | 10.5 µM (inactive) | 10.9 µM (inactive) | 13.9 µM (inactive) | 14.8 µM (inactive) |  | 12.8 µM (inactive) | 7.93 µM (inactive) | 11.5 µM (inactive) | 8.26 | 13.6 µM (inactive) | 6.22 µM (inactive) | 5.15 µM (inactive) | 3.27 µM (inactive) | 13.2 µM (inactive) | 9.48 µM (inactive) | 7.26 µM (inactive) | 8.22 µM (inactive) | 7.28 µM (inactive) |
| N=C1N(S(=O)(=O)c2ccccc2)[C@@H](Cc2ccccc2)[C@H](c2ccccc2)C1(c1ccccc1)c1ccccc1 | 36.7 µM (inactive) | 27.2 µM (inactive) | 40.4 µM (inactive) | 64.1 µM (inactive) | > 100 µM (inactive) | 71.1 µM (inactive) | > 100 µM (inactive) | 31.4 µM (inactive) | 10.4 µM (inactive) | > 100 | > 100 µM (inactive) | 41.3 µM (inactive) | 8.55 µM (inactive) | 14 µM (inactive) | > 100 µM (inactive) | > 100 µM (inactive) | 70.1 µM (inactive) | 39.5 µM (inactive) | > 100 µM (inactive) |
| Cc1cc(O)ccc1C1(c2ccc(F)cc2)OC(=O)c2ccccc21 (centres undefined) | 15.6 µM (inactive) | 4.33 µM (inactive) | 3.21 µM (inactive) | 15.5 µM (inactive) | 7.73 µM (inactive) | 6.87 µM (inactive) | 0.485 µM (active) |  | 0.236 µM (active) | 3.18 | 11.6 µM (inactive) | 13.4 µM (inactive) | 4 µM (inactive) | 21.7 µM (inactive) | 2.21 µM (inactive) | 3.48 µM (inactive) | 0.415 µM (active) | 0.646 µM (active) | 4.15 µM (inactive) |
| O=C(n1c(=O)n(-c2ccc(Cl)cc2)c(=O)n1C(=O)C(Cl)(Cl)Cl)C(Cl)(Cl)Cl | > 100 µM (inactive) | > 100 µM (inactive) | > 100 µM (inactive) | > 100 µM (inactive) | 50 µM (inactive) | 21.4 µM (inactive) | > 100 µM (inactive) | 82.8 µM (inactive) | > 100 µM (inactive) | > 10 | > 100 µM (inactive) | > 100 µM (inactive) | 31 µM (inactive) | > 100 µM (inactive) | > 100 µM (inactive) | > 100 µM (inactive) | 43.5 µM (inactive) | > 100 µM (inactive) | > 100 µM (inactive) |
| CN1c2ccc(O)c(O)c2-c2cc(O)cc3c2C1CCC3 (centres undefined) | 23.9 µM (inactive) | 20.5 µM (inactive) | 14.6 µM (inactive) | 23.4 µM (inactive) | 14.2 µM (inactive) | 14.4 µM (inactive) | 17.5 µM (inactive) | 21.4 µM (inactive) | 4.55 µM (inactive) | 20.6 | 16.9 µM (inactive) | 7 µM (inactive) | 13.6 µM (inactive) | 3.31 µM (inactive) | 11.6 µM (inactive) | 57.7 µM (inactive) | 18 µM (inactive) | 4.5 µM (inactive) | 63.5 µM (inactive) |
| CC(C)(C)OC(=O)NC(CS(=O)(=O)O)C(=O)O (centres undefined) | > 100 µM (inactive) | > 100 µM (inactive) | > 100 µM (inactive) | > 100 µM (inactive) | > 100 µM (inactive) | > 100 µM (inactive) | > 100 µM (inactive) | > 100 µM (inactive) | > 100 µM (inactive) | > 100 | > 100 µM (inactive) | > 100 µM (inactive) | > 100 µM (inactive) | > 100 µM (inactive) | > 100 µM (inactive) | > 100 µM (inactive) | > 100 µM (inactive) | > 100 µM (inactive) | > 100 µM (inactive) |
